Results taken from US20200129583A1, “COMPOSITION FOR TREATING ACUTE URINARY RETENTION” (ANTEV LIMITED, priority 2018, published 2020).

Assays:
[1] = system: male patients suffering from BPH; experiment: International Prostate Symptom Score (I-PSS) in phase II placebo-controlled study; format: in vivo, human
Protocol: (§1) A phase II randomised, double blind, placebo-controlled, multi-centre, multi national study was conducted in order to investigate the use of an Teverelix TFA formulation in the composition according to the invention. In said study the International Prostate Symptom Score (I-PSS), the prostate volume, the urinary flow rate and the testosterone level in males suffering from BPH were evaluated.
(§2) The Teverelix TFA formulation was reconstituted as follows. 0.8 ml 5% mannitol was added to 60 mg of the LHRH antagonist Teverelix trifluoroacetate. The mixture was stirred using vortex during one minute providing a dosage formulation of Teverelix TFA as a flowing milky pearly microcrystalline aqueous suspension. The suspension is made of microcrystals of about 10 μm length. Corresponding placebo formulations, without Teverelix TFA, were also prepared
(§3) Formulation A: 60 mg Teverelix TFA in 0.8 ml 5% mannitol
(§4) Two single injections of Formulation A and Formulation A-placebo was administered s.c. at an interval of 48 hours to 81 male patients (41 on A and 40 on A-placebo) suffering from BPH.
The International Prostate Symptom Score (I-PSS) is based on the answers to seven questions concerning urinary symptoms and one question concerning quality of life. Each question concerning urinary symptoms allows the patient to choose one out of six answers indicating increasing severity of the particular symptom. The answers are assigned points from 0 to 5. The total score can therefore range from 0 to 35 (asymptomatic to very symptomatic).

[2] = system: male patients suffering from BPH; experiment: Prostate volume in phase II placebo-controlled study; format: in vivo, human; conditions: two s.c. injections of 60 mg at an interval of 48 hours
Protocol: as §1, §2, §3, §4

[3] = system: male patients suffering from BPH; experiment: Urinary flow rate (Qmax) in phase II placebo-controlled study; format: in vivo, human; conditions: two s.c. injections of 60 mg at an interval of 48 hours
Protocol: as §1, §2, §3, §4

[4] = system: male patients suffering from BPH; experiment: Serum testosterone level in phase II placebo-controlled study; format: in vivo, human; conditions: two s.c. injections of 60 mg at an interval of 48 hours; FIG. 4
Protocol: as §1, §2, §3, §4

[5] = system: male patients suffering from BPH; experiment: Side effects with the use of Teverelix TFA; set-up: species or system human; conditions: in vivo
Protocol: as §1, §4

**Q.** How did the IPSS reduction ([1]; at 2 weeks) turn out when “N-Ac-d-Nal^1, d-pCl-Phe^2, d-Pal^3, d-(Hci)^6, Lys(iPr)^8, d-Ala^10 trifluoroacetate [Teverelix TFA]” was run?
**A.** The IPSS reduction was 12.6%.

**Q.** What about the IPSS reduction ([1]; at 16 weeks) of the same substance?
**A.** Its IPSS reduction is 33.9%.

**Q.** And the “improvement in quality of life score (QoL)” value ([1]; at 16 weeks)?
**A.** Its value is 32.8%.

**Q.** And the “time to improvement of symptoms (I-PSS)” value ([1]; two s.c. injections of 60 mg at an interval of 48 hours)?
**A.** The value was “within two weeks”.

**Q.** What about the “improvement on I-PSS” value ([1]; two s.c. injections of 60 mg at an interval of 48 hours, 16-week study, FIG. 1) of the same substance?
**A.** Its value is 39.9%.

**Q.** And the “time to prostate volume reduction after initiating therapy” value [2]?
**A.** Its value is “within four weeks”.

**Q.** What about the prostate volume decrease ([2]; FIG. 2) of the same substance?
**A.** The prostate volume decrease was 11.5%.

**Q.** And the “time to significant increase in the flow rate” value [3]?
**A.** The value was “within the first two weeks”.

**Q.** What about the “increase in maximum urinary flow rate (Qmax)” value ([3]; at 16 weeks) of the same substance?
**A.** Its value is 43%.

**Q.** And the “reduction in the testosterone level” value [4]?
**A.** Its value is “immediate reduction”.

**Q.** And the “time for testosterone level to return to baseline levels” value [4]?
**A.** The value was “within eight weeks”.

**Q.** And the serious side effects [5]?
**A.** Its serious side effects is “no serious side effects”.
